From ChEMBL document CHEMBL1201862, “PubChem BioAssay data set” (2004)
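Step 1: Grow cells in 96-well plates. Step 2: Expose to compound for 48 hours at 5 concentrations. Step 3: Interpolate endpoints linearly; if unreached, use highest concentration. Abbreviation: GI50, concentration required for 50% inhibition of growth.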 Activity calls are given as the source filed them. Rule as the data show it: active = GI50 up to about 1.1 µM and inactive = higher.

Legend:
Test in all cases: growth of human tumour cells (NCI), 48 h
BT-549 = test system: BT-549
SNB-78 = test system: SNB-78
M19-MEL = test system: M19-MEL
DMS-114 = test system: DMS-114
KM-20L2 = test system: KM-20L2
HOP-18 = test system: HOP-18
DLD-1 = test system: DLD-1
RXF 631 = test system: RXF 631
XF498 = test system: XF498

SMILES	GI50 (BT-549)	GI50 (DMS-114)	GI50 (KM-20L2)	GI50 (DLD-1)	also measured
CC(=O)Oc1ccc2c(C)cc(=O)oc2c1	> 100 µM (inactive)	–	–	–	–
N=C(N)SCc1ccc(Cl)c2ccccc12.O=[N+]([O-])c1ccc(O)c([N+](=O)[O-])c1	15.6 µM (inactive)	–	–	–	–
Cn1c(=O)c2nc(CCCc3ccc([N+](=O)[O-])cc3)[nH]c2n(C)c1=O	> 100 µM (inactive)	–	–	–	–
CCC(C)(C)c1ccc(Oc2cccc(C(=O)O)c2)cc1	66.7 µM (inactive)	–	–	–	–
O=S(=O)(c1cc(Cl)ccc1Cl)n1ccnc1	35.4 µM (inactive)	–	–	–	–
c1ccc(C(OCCN2CC3CCC(C2)N3)c2ccccc2)cc1	22 µM (inactive)	–	–	–	–
COC(=O)C1=C(O)C(C(=O)OC)[C@]2(O)[C@H](C(=O)OC)[C@H]1C[C@@H](c1ccc(F)cc1)[C@H]2C(=O)OC (some centres undefined)	21.4 µM (inactive)	–	–	–	–
COc1ccccc1/C=C/C(=O)c1sc(-c2cccnc2)nc1C	–	> 100 µM (inactive)	> 100 µM (inactive)	> 100 µM (inactive)	GI50 (SNB-78): > 100 µM (inactive); GI50 (M19-MEL): > 100 µM (inactive); GI50 (HOP-18): 76.6 µM (inactive)
O=C1c2cc(Cl)ccc2N=C(NC2CCCC2)C2CSCN12 (centres undefined)	> 100 µM (inactive)	–	–	–	–
CCCCCCN(N)C(=O)CC#N	–	32.2 µM (inactive)	> 100 µM (inactive)	87.3 µM (inactive)	GI50 (SNB-78): > 100 µM (inactive); GI50 (RXF 631): 98.9 µM (inactive); GI50 (M19-MEL): > 100 µM (inactive); GI50 (HOP-18): > 100 µM (inactive)
O=C(c1ccc(Cl)c(Cl)c1)N(C(=S)OC12CC3CC(CC(C3)C1)C2)c1ccccc1	36 µM (inactive)	–	–	–	–
C[N+](C)(C)CC(=O)N/N=C(/Cc1nc2ccc([N+](=O)[O-])cc2nc1O)C(=O)Nc1cc(C(F)(F)F)ccc1Cl	–	75 µM (inactive)	> 100 µM (inactive)	> 100 µM (inactive)	GI50 (RXF 631): > 100 µM (inactive); GI50 (M19-MEL): > 100 µM (inactive)
Cc1cc(O)c2c3c1C(=O)Oc1c(CO)c(O)c(C(=O)O)c(c1O3)C=NN=Cc1c3c(c(CO)c(O)c1C(=O)O)OC(=O)c1c(C)cc(O)c(c1O3)C=NN=C2	–	51.5 µM (inactive)	> 100 µM (inactive)	> 100 µM (inactive)	GI50 (SNB-78): > 100 µM (inactive); GI50 (M19-MEL): > 100 µM (inactive); GI50 (XF498): > 100 µM (inactive); GI50 (HOP-18): > 100 µM (inactive)
COc1cc(/C=C2/SC(c3ccccc3)N(c3cccc(NC(C)=O)c3)C2=O)cc(OC)c1OC (centres undefined)	44.7 µM (inactive)	–	–	–	–
CSc1ncnc2c1ncn2C1CC(Oc2ccc(C)cc2)C(COc2ccc(C)cc2)O1 (centres undefined)	> 100 µM (inactive)	–	–	–	–
CCOc1ccc(/N=N/C2C(=O)N(C(=O)CC(=O)Nc3ccccc3OC)N=C2C)cc1 (centres undefined)	13.2 µM (inactive)	–	–	–	–
O=[N+]([O-])C1=Cc2cc(Cl)ccc2OC1c1cccc2ccccc12 (centres undefined)	0.436 µM (active)	–	–	–	–
Cc1no[n+]([O-])c1/C=N/NS(=O)(=O)c1ccccc1	–	> 100 µM (inactive)	> 100 µM (inactive)	> 100 µM (inactive)	GI50 (M19-MEL): > 100 µM (inactive); GI50 (HOP-18): > 100 µM (inactive)
CC1=CCC([C@@](C)(O)CCCC(C)(C)N=C=S)CC1 (some centres undefined)	17.8 µM (inactive)	–	–	–	–
CCOP(=O)(/C=C/n1cc(C)c(=O)[nH]c1=O)OCC	> 100 µM (inactive)	–	–	–	–
Nc1nc(N)c2cc(CNc3ccc(C(=O)NC(CC(=O)O)C(=O)O)c(Cl)c3)ccc2n1 (centres undefined)	25.8 µM (inactive)	< 0.01 µM (active)	0.117 µM (active)	0.038 µM (active)	GI50 (SNB-78): 56 µM (inactive); GI50 (M19-MEL): 0.596 µM (active); GI50 (HOP-18): > 100 µM (inactive)

SMILES	GI50 (BT-549)	GI50 (DMS-114)	GI50 (KM-20L2)	GI50 (DLD-1)	also measured
CCN(CCO)CC1CCCC2CCCCC21 (centres undefined)	> 100 µM (inactive)	–	–	–	–
COc1ccc(C2CC(c3ccc(NS(=O)(=O)c4cc([N+](=O)[O-])ccc4C)cc3)=NN2S(=O)(=O)c2cc([N+](=O)[O-])ccc2C)cc1 (centres undefined)	36 µM (inactive)	–	–	–	–
CC(=O)OCCCCN1C(=O)CSc2ccccc21	4.2 µM (inactive)	–	–	–	–
Cc1c(C(=O)CC(=O)C(=O)Nc2ccc(Cl)c(Cl)c2)[n+]([O-])c2ccccc2[n+]1[O-]	–	16.9 µM (inactive)	52.5 µM (inactive)	–	GI50 (SNB-78): 48.9 µM (inactive); GI50 (RXF 631): 22.5 µM (inactive); GI50 (M19-MEL): 15.7 µM (inactive)
N#C/C(=C\c1c(O)cc(O)cc1O)C(N)=O	–	> 100 µM (inactive)	> 100 µM (inactive)	> 100 µM (inactive)	GI50 (SNB-78): > 100 µM (inactive); GI50 (RXF 631): > 100 µM (inactive); GI50 (XF498): > 100 µM (inactive)
COCC12CCC(OC)C34C5CC6(O)C(OC)C=C(C5C6OC(=O)c5ccccc5)C(C(OC)C13)C4N(C)C2 (centres undefined)	> 100 µM (inactive)	–	–	–	–
Cc1ccc(C(=O)N/N=C(\N=N\c2ccccc2[N+](=O)[O-])c2ccc(N(C)C)cc2)cc1	> 100 µM (inactive)	–	–	–	–
CCOC(=O)c1c(N)n(-c2ccccc2)c(=O)n(-c2ccccc2)c1=O	> 100 µM (inactive)	–	–	–	–
O=C1C(Br)=Cc2c(Cl)sc(Cl)c21	22.2 µM (inactive)	–	–	–	–
CCOC(=O)[C@@H](Cc1ccc(CCl)cc1)NC(C)=O	31.1 µM (inactive)	–	–	–	–
O=c1c(-c2cccc3ccccc23)c(-c2cccc3ccccc23)c1=O	–	2.1 µM (inactive)	0.379 µM (active)	3.28 µM (inactive)	GI50 (SNB-78): 1.95 µM (inactive); GI50 (M19-MEL): 3.07 µM (inactive); GI50 (XF498): 2.27 µM (inactive); GI50 (HOP-18): 39.8 µM (inactive)
COC(=O)CC(NC(=O)OCc1ccccc1)C(C(=O)OCc1ccccc1)C1(C)OCCO1 (centres undefined)	–	23.6 µM (inactive)	45.5 µM (inactive)	36.1 µM (inactive)	GI50 (RXF 631): 34.9 µM (inactive); GI50 (M19-MEL): 30.2 µM (inactive); GI50 (XF498): 15.8 µM (inactive)
Cc1cc2nc(N3C(=O)/C(=C/c4ccc(Cl)cc4)N=C3c3ccccc3)sc2cc1C	26.4 µM (inactive)	–	–	–	–
Cc1[nH]c2[nH]c(=S)nc(NC(N)=S)c2c1Cc1ccccc1	14.3 µM (inactive)	–	–	–	–
Cc1ccnc(NS(=O)(=O)c2ccc(NC(=O)c3ccc4nc5ccccc5c(Nc5ccc(S(=O)(=O)Nc6nccc(C)n6)cc5)c4c3)cc2)n1	14.3 µM (inactive)	–	–	–	–
O=C(CC(=O)N1N=C(N(c2ccccc2)c2ccccc2)CC1c1ccccc1)Nc1ccc(Cl)cc1 (centres undefined)	> 100 µM (inactive)	–	–	–	–
CC1=C(C(=O)Nc2cc(=O)n(C)c(=O)n2C)C(c2cccc([N+](=O)[O-])c2)C(C(=O)Nc2cc(=O)n(C)c(=O)n2C)=C(C)N1	–	80.5 µM (inactive)	> 100 µM (inactive)	> 100 µM (inactive)	GI50 (SNB-78): > 100 µM (inactive); GI50 (M19-MEL): > 100 µM (inactive)
CC1(O)C(C)(O)C2(C)O[Te]3(OC12C)OC1(C)C(C)(O)C(C)(O)C1(C)O3 (centres undefined)	–	20 µM (inactive)	–	33 µM (inactive)	GI50 (SNB-78): > 100 µM (inactive); GI50 (RXF 631): 18.5 µM (inactive); GI50 (M19-MEL): 22.1 µM (inactive); GI50 (XF498): > 100 µM (inactive)
COc1cc(-c2nc(N)c(C#N)c3c2CCS(=O)(=O)c2ccc(C)cc2-3)cc(OC)c1OC	53 µM (inactive)	–	–	–	–
O=[N+]([O-])c1ccc(CSc2nncc3[nH]cnc23)cc1	85.3 µM (inactive)	–	–	–	–
O=C(c1ccccc1)C1N=NCC1c1ccc([N+](=O)[O-])cc1 (centres undefined)	24.2 µM (inactive)	–	–	–	–

SMILES	GI50 (BT-549)	GI50 (DMS-114)	GI50 (KM-20L2)	GI50 (DLD-1)	also measured
O=NN(CCCl)C(=O)N[C@H]1CC[C@H](CC(=O)O)CC1	–	61.9 µM (inactive)	> 46.5 µM (inactive)	> 100 µM (inactive)	GI50 (SNB-78): > 100 µM (inactive); GI50 (M19-MEL): > 100 µM (inactive); GI50 (XF498): > 100 µM (inactive); GI50 (HOP-18): > 78.7 µM (inactive)
O=C(c1ccccc1)c1ccc(N2C(=O)/C(=C/c3cccc([N+](=O)[O-])c3)N=C2c2ccccc2)c(N2C(=O)/C(=C/c3cccc([N+](=O)[O-])c3)N=C2c2ccccc2)c1	35.5 µM (inactive)	–	–	–	–
CCC(CCCN)Nc1cc(OC)cc2cccnc12 (centres undefined)	> 100 µM (inactive)	–	–	–	–
COc1ccc([N+]2=NC(c3ccc([N+](=O)[O-])cc3)=NN(c3ccccc3)C2)cc1.[O-][Cl+3]([O-])([O-])[O-]	–	40.6 µM (inactive)	58.9 µM (inactive)	34.9 µM (inactive)	GI50 (SNB-78): > 100 µM (inactive); GI50 (XF498): 53.6 µM (inactive)
O=[N+]([O-])c1cc2ccc1OCc1cccc(n1)COc1ccc(cc1[N+](=O)[O-])/C=N\CCCCCCCC/N=C\2	> 100 µM (inactive)	–	–	–	–
O=c1[nH]c2ccc([N+](=O)[O-])c(Cl)c2c2ccccc12	4.04 µM (inactive)	–	–	–	–
Cn1ccnc1CCc1c(Cl)cccc1Cl	–	> 100 µM (inactive)	> 100 µM (inactive)	> 100 µM (inactive)	GI50 (SNB-78): > 100 µM (inactive); GI50 (M19-MEL): > 100 µM (inactive); GI50 (HOP-18): 51.4 µM (inactive)
O=C1N[C@H](Cc2c[nH]cn2)C(=O)N2CCC[C@@H]12	–	> 100 µM (inactive)	> 100 µM (inactive)	> 100 µM (inactive)	GI50 (SNB-78): > 100 µM (inactive); GI50 (M19-MEL): > 100 µM (inactive); GI50 (XF498): > 100 µM (inactive)
Cc1cc(Cl)cc2c1NC(=O)C2(O)CC(=O)c1ccc(Br)cc1 (centres undefined)	–	34.8 µM (inactive)	> 91.4 µM (inactive)	50.8 µM (inactive)	GI50 (RXF 631): > 71.3 µM (inactive); GI50 (M19-MEL): 22.5 µM (inactive); GI50 (XF498): 30.2 µM (inactive)
COC(=O)c1nc2n(n1)-c1ccccc1C(=O)N(Cc1ccccc1)C2	> 100 µM (inactive)	–	–	–	–
CN(/N=C/c1ccccn1)C1=NCCCCN1	> 100 µM (inactive)	–	–	–	–
CC1CCC2(OC1)OC1CC3C4CC=C5CC(OC6OC(CO)C(OC7OC(C)C(OC8OC(C)C(O)C(O)C8O)C(O)C7O)C(O)C6OC6OC(C)C(O)C(O)C6O)CCC5(C)C4CCC3(C)C1C2C (centres undefined)	1.66 µM (inactive)	–	–	–	–
Cc1c(Cl)c2ccccc2n1S(=O)(=O)c1ccccc1	–	37.9 µM (inactive)	26.5 µM (inactive)	71.6 µM (inactive)	GI50 (XF498): > 100 µM (inactive)
COc1cc(C2=C(C)[C@@H]3CN(CC=C3c3ccc(Cl)cc3)C2)c(S(=O)(=O)O)cc1OC	> 100 µM (inactive)	–	–	–	–
N#CC(=S)Nc1cccc(Cl)c1	35.5 µM (inactive)	–	–	–	–
C/C(CC(=O)Nc1ccccc1C)=N/NS(=O)(=O)c1ccc(C)cc1	–	–	> 100 µM (inactive)	> 100 µM (inactive)	GI50 (SNB-78): > 100 µM (inactive); GI50 (RXF 631): > 100 µM (inactive); GI50 (M19-MEL): > 100 µM (inactive); GI50 (XF498): > 100 µM (inactive)
COc1cc2c(cc1OCCCCOc1cc3nc(C)nc(Cl)c3cc1OC)N=C[C@@H]1CCCN1C2=O	2.17 µM (inactive)	–	–	–	–
COc1cccc2c1C(=O)c1c(O)c3c(c(O)c1C2=O)CC(O)(C(=O)CO)CC3OC1CC(N2CCOCC2C#N)C(O)C(C)O1 (centres undefined)	< 0.0001 µM (active)	–	–	–	–
CCCC(C)C[C@@H](C)CC(C)/C=C(\C)c1oc(=O)c(C)c(O)c1C.CC[C@@H](C)C[C@@H](C)C[C@@H](C)/C=C(\C)c1oc(=O)c(C)c(O)c1C (some centres undefined)	–	16.8 µM (inactive)	12.6 µM (inactive)	13.5 µM (inactive)	GI50 (SNB-78): 20.9 µM (inactive); GI50 (M19-MEL): 10 µM (inactive)
COc1cc(/C=N/c2ccc(S(N)(=O)=O)cc2)cc(OC)c1	> 50 µM (inactive)	–	–	–	–
